Test results taken from patent US20170327598A1, “SINGLE DOMAIN ANTIBODIES DIRECTED AGAINST INTRACELLULAR ANTIGENS” (SINGH MOLECULAR MEDICINE, LLC, priority 2014, published 2017).
Several values for one entry are separate records, joined by “and”; a condition that tells them apart may be missing. Equal values may be shown once.

Columns and labels:
[1] = system: VEGF-A production in ARPE-19 cells; experiment: VEGF-A ELISA in ARPE-19 retinal cells, Experiment 2;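 on all read-outs here: confluent ARPE-19 cells in 96-well plates, VEGF-A in culture supernatant quantified by ELISA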; format: cell-based, human; details: for Result (pg VEGF-A per mL): single reads; for pg VEGF-A per mL: based on collecting 0.1 ml of supernatant; for Mean (pg VEGF-A per mL): mean of Adj. Result, Wells 1-3; for Mean (pg VEGF-A per μg protein): mean of Wells 1-3; for Mean (pg VEGF-A per μg protein) / % Control: Experiment 2; for % Control: normalized for protein; for Mean Result (pg VEGF-A per mL) / pg VEGF-A per μg protein / Adj. Result (pg VEGF-A per mL): per well; for Adj. Result (pg VEGF-A per mL): adjusted for dilution
[2] = system: PANC-1 cells; experiment: MTT proliferation assay, PANC-1; format: cell-based, human; details: for Mean Absorbance (570 nM) ± S.E.: single experiments 1-3, listed as B.VHH13
[3] = system: VEGF-A production in ARPE-19 cells; experiment: VEGF-A ELISA in ARPE-19 retinal cells, Experiment 1; format: cell-based, human; details: for Mean (pg VEGF-A per mL): mean of Adj. Result, Wells 1-3; for Mean (pg VEGF-A per μg protein): mean of Wells 1-3; for % Control: normalized for protein; for Adj. Result (pg VEGF-A per mL) / Result (pg VEGF-A per mL): 72 Hr; for Adj. Result (pg VEGF-A per mL): per well, adjusted for dilution; for Result (pg VEGF-A per mL): single reads, higher than top of standard curve
[4] = system: BT474 human breast tumor xenograft; experiment: BT474 human breast tumor xenograft in CB.17 SCID mice, Example 13; format: in vivo
[5] = system: DU145 cells; experiment: MTT proliferation assay, DU145; format: cell-based, human; parameters: Mean Abs: unit of the concentration uncertain

Anti-STAT3 VHH13: anti-STAT3 single domain antibody, SEQ ID NO:3; bacterially produced form referred to as SBT-100
Result (pg VEGF-A per mL) ([1]; 10 μg/well, 12 Hr): 29.66 pg VEGF-A per mL and 31.2 pg VEGF-A per mL and 24.52 pg VEGF-A per mL and 24.31 pg VEGF-A per mL and 27.98 pg VEGF-A per mL and 29.18 pg VEGF-A per mL | % Negative Control ([1]; 10 μg/well, 24 Hr): 1142% | pg VEGF-A per mL ([1]; 10 μg/well, 24 Hr): 28 pg VEGF-A per mL and 34.8 pg VEGF-A per mL and 42.4 pg VEGF-A per mL | Mean (pg VEGF-A per mL) ([1]; 10 μg/well, 24 Hr): 350.7 pg VEGF-A per mL | Mean (pg VEGF-A per μg protein) ([1]; 10 μg/well, 24 Hr): 5.290 pg VEGF-A per μg protein | % Control ([1]; 10 μg/well, 24 Hr): 119.8% | Mean Result (pg VEGF-A per mL) ([1]; 10 μg/well, 24 Hr): 55.95 pg VEGF-A per mL and 69.61 pg VEGF-A per mL and 84.84 pg VEGF-A per mL | pg VEGF-A per μg protein ([1]; 10 μg/well, 24 Hr): 4.4 pg VEGF-A per μg protein and 5.4 pg VEGF-A per μg protein and 6.1 pg VEGF-A per μg protein | Adj. Result (pg VEGF-A per mL) ([1]; 10 μg/well, 24 Hr): 279.74 pg VEGF-A per mL and 348.06 pg VEGF-A per mL and 424.20 pg VEGF-A per mL | Result (pg VEGF-A per mL) ([1]; 10 μg/well, 24 Hr): 57.85 pg VEGF-A per mL and 54.04 pg VEGF-A per mL and 72.69 pg VEGF-A per mL and 66.53 pg VEGF-A per mL and 84.97 pg VEGF-A per mL and 84.71 pg VEGF-A per mL | % Negative Control ([1]; 10 μg/well, 48 Hr): 99.3% | pg VEGF-A per mL ([1]; 10 μg/well, 48 Hr): 83.7 pg VEGF-A per mL and 95.6 pg VEGF-A per mL and 98.3 pg VEGF-A per mL | Mean (pg VEGF-A per mL) ([1]; 10 μg/well, 48 Hr): 925.1 pg VEGF-A per mL | Mean (pg VEGF-A per μg protein) ([1]; 10 μg/well, 48 Hr): 13.696 pg VEGF-A per μg protein | % Control ([1]; 10 μg/well, 48 Hr): 104.6% | Mean Result (pg VEGF-A per mL) ([1]; 10 μg/well, 48 Hr): 191.17 pg VEGF-A per mL and 196.56 pg VEGF-A per mL and 167.34 pg VEGF-A per mL | pg VEGF-A per μg protein ([1]; 10 μg/well, 48 Hr): 11.8 pg VEGF-A per μg protein and 14 pg VEGF-A per μg protein and 15.3 pg VEGF-A per μg protein | Adj. Result (pg VEGF-A per mL) ([1]; 10 μg/well, 48 Hr): 955.85 pg VEGF-A per mL and 982.81 pg VEGF-A per mL and 836.69 pg VEGF-A per mL | Result (pg VEGF-A per mL) ([1]; 10 μg/well, 48 Hr): 194.18 pg VEGF-A per mL and 188.16 pg VEGF-A per mL and 194.77 pg VEGF-A per mL and 198.36 pg VEGF-A per mL and 158.85 pg VEGF-A per mL and 175.83 pg VEGF-A per mL | VEGF-A as % of control ([1]; 100 μg/mL, 12 hour treatment): 20.1% | VEGF-A as % of control ([1]; 100 μg/mL, 24 hour treatment): 7.5% | pg VEGF-A/m protein as % of the negative control ([1]; 100 μg/mL, 48 hours): 11% | % Negative Control ([1]; 100 μg/well, 12 Hr): 18.5% | pg VEGF-A per mL ([1]; 100 μg/well, 12 Hr): 2.4 pg VEGF-A per mL and 2.3 pg VEGF-A per mL | Mean (pg VEGF-A per mL) ([1]; 100 μg/well, 12 Hr): 23.8 pg VEGF-A per mL | Mean (pg VEGF-A per μg protein) ([1]; 100 μg/well, 12 Hr): 0.4 pg VEGF-A per μg protein | Mean Result (pg VEGF-A per mL) ([1]; 100 μg/well, 12 Hr): 4.86 pg VEGF-A per mL and 4.58 pg VEGF-A per mL | pg VEGF-A per μg protein ([1]; 100 μg/well, 12 Hr): 0.4 pg VEGF-A per μg protein | Adj. Result (pg VEGF-A per mL) ([1]; 100 μg/well, 12 Hr): 24.27 pg VEGF-A per mL and 22.91 pg VEGF-A per mL | Result (pg VEGF-A per mL) ([1]; 100 μg/well, 12 Hr): 5.09 pg VEGF-A per mL and 4.62 pg VEGF-A per mL and 5.3 pg VEGF-A per mL and 4.41 pg VEGF-A per mL and 4.83 pg VEGF-A per mL and 4.33 pg VEGF-A per mL | % Negative Control ([1]; 100 μg/well, 24 Hr): 6.3% | Mean (pg VEGF-A per mL) ([1]; 100 μg/well, 24 Hr): 19.2 pg VEGF-A per mL | Mean (pg VEGF-A per μg protein) ([1]; 100 μg/well, 24 Hr): 0.329 pg VEGF-A per μg protein | % Control ([1]; 100 μg/well, 24 Hr): 7.5% | pg VEGF-A per μg protein ([1]; 100 μg/well, 24 Hr): 0.5 pg VEGF-A per μg protein and 0.3 pg VEGF-A per μg protein | % Negative Control ([1]; 100 μg/well, 48 Hr): 3.7% | pg VEGF-A per mL ([1]; 100 μg/well, 48 Hr): 3.9 pg VEGF-A per mL | Mean (pg VEGF-A per mL) ([1]; 100 μg/well, 48 Hr): 35.6 pg VEGF-A per mL | Mean (pg VEGF-A per μg protein) ([1]; 100 μg/well, 48 Hr): 1.458 pg VEGF-A per μg protein | % Control ([1]; 100 μg/well, 48 Hr): 11.1% | Mean Result (pg VEGF-A per mL) ([1]; 100 μg/well, 48 Hr): 5.85 pg VEGF-A per mL and 7.78 pg VEGF-A per mL and 7.76 pg VEGF-A per mL | pg VEGF-A per μg protein ([1]; 100 μg/well, 48 Hr): 1.4 pg VEGF-A per μg protein and 1.6 pg VEGF-A per μg protein | Adj. Result (pg VEGF-A per mL) ([1]; 100 μg/well, 48 Hr): 29.23 pg VEGF-A per mL and 38.88 pg VEGF-A per mL and 38.78 pg VEGF-A per mL | Result (pg VEGF-A per mL) ([1]; 100 μg/well, 48 Hr): 8.03 pg VEGF-A per mL and 5.86 pg VEGF-A per mL and 5.83 pg VEGF-A per mL and 7.83 pg VEGF-A per mL and 7.72 pg VEGF-A per mL and 7.49 pg VEGF-A per mL | Mean Absorbance (570 nM) ± S.E., Overall Mean ([2]; PANC-1, Day 3, 10.0 μg/ml): 0.472 ± 0.020 | Mean Absorbance (570 nM) ± S.E. ([2]; PANC-1, Day 3, 10.0 μg/ml): 0.432 ± 0.015 and 0.491 ± 0.087 and 0.493 ± 0.029 | Mean Absorbance (570 nM) ± S.E., Overall Mean ([2]; PANC-1, Day 3, 100 μg/ml): 0.214 ± 0.047 | Mean Absorbance (570 nM) ± S.E. ([2]; PANC-1, Day 3, 100 μg/ml): 0.307 ± 0.012 and 0.169 ± 0.094 and 0.166 ± 0.028 | Mean Absorbance (570 nM) ± S.E., Overall Mean ([2]; PANC-1, Day 5, 10.0 μg/ml): 0.643 ± 0.126 | Mean Absorbance (570 nM) ± S.E., Overall Mean ([2]; PANC-1, Day 5, 100 μg/ml): 0.219 ± 0.012 | Mean Absorbance (570 nM) ± S.E. ([2]; PANC-1, Day 5, 100 μg/ml): 0.243 ± 0.024 and 0.211 ± 0.006 and 0.203 ± 0.013 | % Negative Control ([3]; 0.1 μg/well, 24 Hr): 71.1% | Mean (pg VEGF-A per mL) ([3]; 0.1 μg/well, 24 Hr): 2060 pg VEGF-A per mL | Mean (pg VEGF-A per μg protein) ([3]; 0.1 μg/well, 24 Hr): 66 pg VEGF-A per μg protein | % Control ([3]; 0.1 μg/well, 24 Hr): 76.8% | Adj. Result (pg VEGF-A per mL) ([3]; 0.1 μg/well): >12,000 pg VEGF-A per mL | Result (pg VEGF-A per mL) ([3]; 0.1 μg/well): >6,000 pg VEGF-A per mL | Mean (pg VEGF-A per mL) ([3]; 0.5 μg/well, 24 Hr): 2664 pg VEGF-A per mL | Mean (pg VEGF-A per μg protein) ([3]; 0.5 μg/well, 24 Hr): 99 pg VEGF-A per μg protein | % Control ([3]; 0.5 μg/well, 24 Hr): 115.8% | Adj. Result (pg VEGF-A per mL) ([3]; 0.5 μg/well): >12,000 pg VEGF-A per mL | Result (pg VEGF-A per mL) ([3]; 0.5 μg/well): >6,000 pg VEGF-A per mL | T-C ([4]; 1 mg/kg ip tid × 14 first day 2 doses): 10.8 | effect on growth of BT474 tumors in vivo ([4]; 1 mg/kg ip tid×14, compared to the control group): did not reduce the growth | MTV (n) Day 60 ([4]; Day 60, 1 mg/kg ip tid × 14, n in parentheses): 550 (3) | tumor volume ([4]; day 59 of the study, both groups): 700 cubic mm^3 | Average Absorbance ([5]; DU145, 50 μg): 0.98 | Average % Inhibition ([5]; DU145, 50 μg (50.0 μg/ml), listed as anti-STAT3 bacterial VHH13): 31.2% | Absorbance ([5]; DU145, 50 μg, Experiments 1-3, listed as Anti-STAT3 Bacterial VHH13): 0.68 and 1.2 and 1.03 | Average Absorbance ([5]; DU145, 100 μg): 0.10 | Mean Abs ([5]; Table 18, DU145, 0.39 (unit uncertain)): 0.906 | Mean Abs ([5]; Table 18, DU145, 3.13 (unit uncertain)): 0.783 | Mean Abs ([5]; Table 18, DU145, 6.25 (unit uncertain)): 0.770 | Mean Abs ([5]; Table 18, DU145, 25 (unit uncertain)): 0.359 | Mean Abs ([5]; Table 18, DU145, 50 (unit uncertain)): 0.161 | Mean Abs ([5]; Table 18, DU145, 100 (unit uncertain)): 0.039 | Mean Abs ([5]; Table 18, DU145, 200 (unit uncertain)): 0.039
